From PMC11649521 (The Journal of Physiology, 2024)

How the values were obtained:
Test in all cases: cell-based
Details in all cases: read-out: % block at 1 μM PhTx
[1] = biological target: B/α (type-B iGluR/Neto-α; GluRIIB/C/D/E + Neto-α) (Drosophila melanogaster, UniProt Q0KI42+Q7KSB1+Q9VMP3+Q9VPV3)
[2] = biological target: A/β (type-A iGluR/Neto-β; GluRIIA/C/D/E + Neto-β) (Drosophila melanogaster, UniProt Q0KI42+Q7KSB1+Q9VMP4+Q9VPV3)
[3] = biological target: B/β (type-B iGluR/Neto-β; GluRIIB/C/D/E + Neto-β) (Drosophila melanogaster, UniProt Q0KI42+Q7KSB1+Q9VMP3+Q9VPV3)

Sequence of A/β (type-A iGluR/Neto-β; GluRIIA/C/D/E + Neto-β) (Q9VMP4 22-907): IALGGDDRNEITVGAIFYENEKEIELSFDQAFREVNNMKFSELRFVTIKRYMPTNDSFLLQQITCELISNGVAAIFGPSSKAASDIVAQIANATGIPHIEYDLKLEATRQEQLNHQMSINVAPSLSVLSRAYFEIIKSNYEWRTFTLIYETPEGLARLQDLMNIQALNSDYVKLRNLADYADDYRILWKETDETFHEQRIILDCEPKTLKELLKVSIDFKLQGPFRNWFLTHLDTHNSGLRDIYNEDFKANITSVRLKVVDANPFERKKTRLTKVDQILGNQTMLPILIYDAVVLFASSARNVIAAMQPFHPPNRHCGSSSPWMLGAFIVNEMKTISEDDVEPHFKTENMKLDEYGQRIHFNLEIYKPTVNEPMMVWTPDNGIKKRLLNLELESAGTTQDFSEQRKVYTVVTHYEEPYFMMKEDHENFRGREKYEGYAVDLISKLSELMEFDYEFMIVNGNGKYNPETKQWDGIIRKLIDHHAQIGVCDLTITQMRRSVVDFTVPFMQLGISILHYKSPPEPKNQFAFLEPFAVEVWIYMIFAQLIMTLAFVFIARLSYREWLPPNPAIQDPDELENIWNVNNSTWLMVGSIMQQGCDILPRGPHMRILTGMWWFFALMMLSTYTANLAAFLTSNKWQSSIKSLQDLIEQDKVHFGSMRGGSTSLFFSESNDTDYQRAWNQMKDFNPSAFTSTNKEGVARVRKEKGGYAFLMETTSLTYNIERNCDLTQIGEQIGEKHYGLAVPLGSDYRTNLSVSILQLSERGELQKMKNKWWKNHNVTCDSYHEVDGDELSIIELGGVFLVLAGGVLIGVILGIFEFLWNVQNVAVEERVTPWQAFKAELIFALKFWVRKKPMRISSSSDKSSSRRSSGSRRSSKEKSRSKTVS
Sequence of A/β (type-A iGluR/Neto-β; GluRIIA/C/D/E + Neto-β) (Q9VPV3 23-940): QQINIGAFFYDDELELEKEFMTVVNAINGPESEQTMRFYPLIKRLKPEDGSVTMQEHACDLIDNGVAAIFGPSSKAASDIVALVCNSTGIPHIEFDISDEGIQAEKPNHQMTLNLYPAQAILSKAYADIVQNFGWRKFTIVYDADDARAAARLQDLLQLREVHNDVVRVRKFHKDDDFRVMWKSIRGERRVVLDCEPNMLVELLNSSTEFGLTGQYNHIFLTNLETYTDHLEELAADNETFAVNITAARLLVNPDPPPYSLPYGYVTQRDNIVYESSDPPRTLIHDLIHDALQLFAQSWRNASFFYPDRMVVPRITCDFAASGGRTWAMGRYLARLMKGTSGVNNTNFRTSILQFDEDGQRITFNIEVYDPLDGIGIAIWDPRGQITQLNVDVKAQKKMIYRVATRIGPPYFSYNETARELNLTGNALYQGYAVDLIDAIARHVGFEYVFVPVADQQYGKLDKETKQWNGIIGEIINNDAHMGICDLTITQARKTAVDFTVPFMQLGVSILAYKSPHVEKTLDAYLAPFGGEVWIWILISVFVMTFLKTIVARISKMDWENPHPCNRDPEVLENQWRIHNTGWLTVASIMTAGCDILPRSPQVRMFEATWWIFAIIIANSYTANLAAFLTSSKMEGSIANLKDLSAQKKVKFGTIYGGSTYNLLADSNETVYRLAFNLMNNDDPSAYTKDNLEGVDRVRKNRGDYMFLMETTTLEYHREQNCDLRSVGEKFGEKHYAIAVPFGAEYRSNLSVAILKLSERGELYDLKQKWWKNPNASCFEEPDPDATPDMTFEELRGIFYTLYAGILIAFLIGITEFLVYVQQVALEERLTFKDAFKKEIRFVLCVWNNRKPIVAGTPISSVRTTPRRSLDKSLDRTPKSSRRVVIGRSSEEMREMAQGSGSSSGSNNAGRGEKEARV
Sequence of A/β (type-A iGluR/Neto-β; GluRIIA/C/D/E + Neto-β) (Q7KSB1 19-902): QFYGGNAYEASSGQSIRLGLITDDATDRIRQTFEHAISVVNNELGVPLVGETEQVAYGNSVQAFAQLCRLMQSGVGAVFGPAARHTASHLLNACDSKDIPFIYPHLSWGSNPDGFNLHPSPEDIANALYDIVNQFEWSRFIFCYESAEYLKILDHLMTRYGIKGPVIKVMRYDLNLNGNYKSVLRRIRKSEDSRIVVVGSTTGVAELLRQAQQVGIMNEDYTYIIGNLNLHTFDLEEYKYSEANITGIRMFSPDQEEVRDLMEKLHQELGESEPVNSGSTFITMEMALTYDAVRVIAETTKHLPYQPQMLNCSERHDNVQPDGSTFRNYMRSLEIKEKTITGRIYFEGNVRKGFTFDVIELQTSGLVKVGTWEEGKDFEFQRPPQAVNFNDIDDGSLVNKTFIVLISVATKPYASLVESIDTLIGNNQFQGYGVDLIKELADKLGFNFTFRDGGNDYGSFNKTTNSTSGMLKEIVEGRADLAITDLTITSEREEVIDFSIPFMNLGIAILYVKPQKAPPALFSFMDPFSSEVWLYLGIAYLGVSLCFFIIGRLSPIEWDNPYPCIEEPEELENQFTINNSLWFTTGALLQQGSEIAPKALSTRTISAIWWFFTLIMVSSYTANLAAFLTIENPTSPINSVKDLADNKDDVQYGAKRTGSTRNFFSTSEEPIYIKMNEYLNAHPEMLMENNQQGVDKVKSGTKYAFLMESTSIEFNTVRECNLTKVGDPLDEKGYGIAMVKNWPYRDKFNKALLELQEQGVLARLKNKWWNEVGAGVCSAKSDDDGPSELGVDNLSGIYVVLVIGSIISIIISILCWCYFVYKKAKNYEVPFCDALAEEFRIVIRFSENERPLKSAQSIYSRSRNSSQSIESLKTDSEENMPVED
Sequence of A/β (type-A iGluR/Neto-β; GluRIIA/C/D/E + Neto-β) (Q0KI42 23-897): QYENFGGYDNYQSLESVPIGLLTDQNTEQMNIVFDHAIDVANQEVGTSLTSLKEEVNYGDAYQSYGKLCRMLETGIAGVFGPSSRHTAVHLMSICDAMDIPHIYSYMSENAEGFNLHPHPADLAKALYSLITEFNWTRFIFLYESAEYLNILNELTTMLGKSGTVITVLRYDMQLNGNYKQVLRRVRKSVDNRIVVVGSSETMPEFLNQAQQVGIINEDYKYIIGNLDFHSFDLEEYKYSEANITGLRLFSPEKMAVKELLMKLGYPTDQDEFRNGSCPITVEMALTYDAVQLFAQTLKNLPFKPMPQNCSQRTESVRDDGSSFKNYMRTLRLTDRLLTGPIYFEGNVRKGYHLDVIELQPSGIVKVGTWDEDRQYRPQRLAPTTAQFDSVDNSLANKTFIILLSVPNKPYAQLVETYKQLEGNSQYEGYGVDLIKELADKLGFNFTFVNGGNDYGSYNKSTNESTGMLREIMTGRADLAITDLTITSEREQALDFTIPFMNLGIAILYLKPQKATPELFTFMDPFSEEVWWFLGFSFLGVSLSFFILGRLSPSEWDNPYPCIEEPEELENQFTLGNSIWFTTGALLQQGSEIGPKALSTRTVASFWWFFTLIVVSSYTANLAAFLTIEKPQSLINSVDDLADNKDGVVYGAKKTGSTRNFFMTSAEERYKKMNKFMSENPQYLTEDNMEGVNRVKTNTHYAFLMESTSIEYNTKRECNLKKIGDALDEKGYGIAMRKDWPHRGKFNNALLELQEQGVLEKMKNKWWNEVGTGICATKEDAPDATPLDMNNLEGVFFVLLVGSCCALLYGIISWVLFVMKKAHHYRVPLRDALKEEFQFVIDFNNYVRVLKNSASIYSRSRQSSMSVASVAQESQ
Sequence of A/β (type-A iGluR/Neto-β; GluRIIA/C/D/E + Neto-β) (X2JDL4 127-822 partner limits assumed): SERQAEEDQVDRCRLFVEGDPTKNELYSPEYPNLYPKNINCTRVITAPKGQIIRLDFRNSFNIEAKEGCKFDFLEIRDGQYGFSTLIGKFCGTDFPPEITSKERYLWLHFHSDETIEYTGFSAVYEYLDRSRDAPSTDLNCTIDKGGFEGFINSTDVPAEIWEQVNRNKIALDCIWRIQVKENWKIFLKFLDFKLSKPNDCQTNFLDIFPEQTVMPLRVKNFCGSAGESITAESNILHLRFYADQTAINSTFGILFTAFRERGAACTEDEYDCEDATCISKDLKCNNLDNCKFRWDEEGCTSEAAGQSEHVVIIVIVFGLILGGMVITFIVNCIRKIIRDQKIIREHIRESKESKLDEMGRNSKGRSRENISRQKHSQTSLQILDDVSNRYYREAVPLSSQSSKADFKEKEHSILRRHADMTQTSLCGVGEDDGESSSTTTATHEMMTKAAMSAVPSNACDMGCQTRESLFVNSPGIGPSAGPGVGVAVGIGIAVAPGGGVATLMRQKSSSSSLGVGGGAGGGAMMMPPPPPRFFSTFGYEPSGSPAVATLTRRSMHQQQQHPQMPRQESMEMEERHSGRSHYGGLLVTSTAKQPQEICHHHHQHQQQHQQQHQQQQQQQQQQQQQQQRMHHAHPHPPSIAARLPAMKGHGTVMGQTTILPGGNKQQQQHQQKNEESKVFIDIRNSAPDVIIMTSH

SMILES: CCCC(=O)N[C@@H](Cc1ccc(O)cc1)C(=O)NCCCNCCCCNCCCN [PhTx, philanthotoxin‐343]
- inhibition at 1 µM [1]: 83.3 ± 5.07%
- inhibition at 1 µM [2]: 98.8 ± 0.67%
- inhibition at 1 µM [3]: 74.7 ± 1.72%
